# Data as given in US10837044B2, “Automated method for analyzing and interpreting an antimicrobial susceptibility” (FONDATION MEDITERRANEE INFECTION, priority 2014, dated 2020).
# Tests used:
# Klebsiella oxytoca = assay: antibiogram by diffusion on Mueller-Hinton agar with antibiotic wafers; assay type: cell-based; details: Table C1; K. oxytoca phenotype Wild; six wafers, disk loads of Table B
# Description: (§1) The inoculum was prepared by making a suspension of bacteria directly from colonies put into solution in tubes of sterile water so that the solution presented accurate opacity as determined with a spectrophotometer equivalent to the opacity of a 0.5 standard in the McFarland range. This bacterial suspension concentration is standardized since a more concentrated inoculum would lead to smaller diameters for the inhibition zone, and vice versa.
# (§2) The inoculum corresponds to concentrations of about 10^8 CFU/mL for Escherichia coli, Klebsiella pneumoniae, Proteus mirabilis, Klebsiella oxytoca, Enterobacter cloacea, Enterobacter aerogenes, Entercoccus faecalis, Pseudomonas aeruginosa, Staphylococcus aureus, and Staphylococcus epidermidis. These are the ten species bacteria that are encountered the most frequently in human pathologies.
# (§3) 1.2) The bacterial sample was deposited on a solid culture medium in a petri dish having a diameter of 90 mm or in a square dish having a side of 120 mm, the medium being constituted by a Mueller-Hinton agar specific for (EUCAST) antibiograms. Ideally, it should be used in the 15 minutes (min) following preparation of the suspension.
# (§4) Seeding was done by the method of diffusion on an agar medium by flooding in which excess bacterial suspension was added to the Mueller-Hinton agar. After homogenizing, excess liquid was discarded in order to avoid over-inoculating the dishes. It is necessary to wait beforehand for the surface of the agar to be dry in order to eliminate any trace of moisture encouraging bacterial invasion.
# (§5) The disks of the antibiotic wafers were deposited within 15 min after inoculating the agar. The antibiotic impregnated disks were deposited using an automatic dispenser that placed the disks firmly on the surface of the inoculated and dried agar. The number of disks deposited per dish was limited because of inhibition zone overlap and in order to limit interference between antibiotics. It is important for the inhibition diameters to be measurable. The antibiograms were then incubated at 37° C. for 18 hours (h) to 24 h.
# (§6) The antibiotic wafers were made of high quality absorbent paper with a diameter of 6 mm and they were impregnated with antibiotics at concentrations in the range 1 micrograms (μg) to 300 μg approximately, depending on the antibiotic.
# (§7) In the examples below, reference disks were used as sold by the suppliers i2a (Montpellier, France), BD (Becton Dickinson, USA), Bio-Rad (Hercules, USA), Biomerieux (Marcy l′Etoile, France) containing the following antibiotics and carrying the following codes and the following doses: AMX (amoxicillin) 25 μg: AMC (amoxicillin-clavulanic acid) 20 μg-10 μg; GM for gentamicin, 15 μg; SXT (trimethoprim-sulfamethoxazole) 1.25/23.75 μg; TIC (ticarcillin) 75 μg; TCC (ticarcillin-clavulanic acid) […]; TZP (piperacillin-tazobactam) 75/10 μg; CAZ (ceftazidime) 30 μg; IMP or IPM (imipeneme) 10 μg; COL (colistin) 50 μg; FOX (cefoxitine) 30 μg; VAN (vancomycin) 30 μg; TEC (teicoplanin) 30 μg; CLI or DA (clindamycin) 2 μg; CRO (ceftriaxone) 30 μg; CIP (ciprofloxacin) 5 μg; OFX (ofloxacin) 5 μg; CTX (cefotaxime) 5 μg; AN or AK (amikacin) 30 μg; TM (tobramycin) 10 μg; FOX (cefoxitine) 30 μg; ATM (aztreonam) 30 μg; ERT (ertapenem) 10 μg; FF (fosfomycin) 200 μg; DO (doxycycline) 30 μg; K (kanamycin) 1000 μg; L (lincomycin) 15 μs; LNZ (linezolid) 10 μg; AN (nalidixic acid) 30 μg; NOR (norfloxacin) 10 μg; PT (pristinamycin) 15 μg; RA (rifampicin) 5 μg; and E (erythromycin) 15 μg.
# Escherichia coli = assay: as above; assay type: cell-based; details: for resistance (I, R) or sensitivity (S): Table C1, disk loads of Table B; for resistant (I/R) or sensitive (S): Table C2, square dish
# Description: as §1, §2, §3, §4, §5, §6, §7
# Enterobacter cloacea = assay: as above; assay type: cell-based; details: Table C1, six wafers, disk loads of Table B
# Description: as §1, §2, §3, §4, §5, §6, §7
# Klebsiella pneumoniae = assay: as above; assay type: cell-based; details: for resistance (I, R) or sensitivity (S): Table C1, six wafers, disk loads of Table B; for resistant (I/R) or sensitive (S): Table C2, sixteen wafers, square dish
# Description: as §1, §2, §3, §4, §5, §6, §7
# Proteus mirabilis = assay: as above; assay type: cell-based; details: Table C1, six wafers, disk loads of Table B
# Description: as §1, §2, §3, §4, §5, §6, §7
# Pseudomonas aeruginosa = assay: as above; assay type: cell-based; details: Table C1, six wafers, disk loads of Table B
# Description: as §1, §2, §3, §4, §5, §6, §7
# Enterobacter aerogenes = assay: as above; assay type: cell-based; details: Table C1, six wafers, disk loads of Table B
# Description: as §1, §2, §3, §4, §5, §6, §7
# BSBL bacteria = details: all of the BSBL bacteria in Table C1
# Description: Synergies are generated with the method on agar by the antibiotics diffusing in the agar as a result of the fact that providing the distance between two antibiotics is small enough (in the range 2 centimeters (cm) to 2.5 cm for Gram negative bacteria) they are capable of diffusing over a common portion of the agar, and as a result it is the association of the two antibiotics in this specific location that makes it possible, where appropriate, to see the appearance of a new inhibition zone, which is the synergy zone.
# In the event of synergy occurring, it is possible to see mechanisms of synergy between two antibiotics since an additional inhibition zone appears generally between the two antibiotics in question. It may be in the form of an enlargement of the diameter around the disk A going towards the disk B if A and B present mutual synergy.
# The BSBL phenotype includes a synergy phenotype between ceftriaxone and clavulanic acid, and thus between CRO and TCC or AMC (for all of the BSBL bacteria in the table).
# [1] = E. coli phenotype BSBL, six wafers
# [2] = E. coli phenotype Carbapenemase, six wafers
# [3] = E. coli phenotype Hl cephalosporinase, six wafers
# [4] = E. coli phenotype Hl penicillinase, six wafers
# [5] = E. coli phenotype Inhibitor resistant penicillinase, six wafers
# [6] = E. coli phenotype Ll penicillinase, six wafers
# [7] = E. coli phenotype Wild, six wafers in a circle
# [8] = K. pneumoniae phenotype Carbapenemase
# [9] = K. pneumoniae phenotype Hl cephalosporinase
# [10] = K. pneumoniae phenotype Hl penicillinase
# [11] = K. pneumoniae phenotype Ll penicillinase
# [12] = P. mirabilis phenotype Hl cephalosporinase
# [13] = P. mirabilis phenotype Hl penicillinase
# [14] = P. mirabilis phenotype Inhibitor resistant penicillinase
# [15] = P. mirabilis phenotype Ll penicillinase
# [16] = P. aeruginosa Abnormal phenotype
# [17] = P. aeruginosa phenotype Carbapenemase
# [18] = P. aeruginosa phenotype Penicillinase
# [19] = P. aeruginosa phenotype Selective imipenem permeability
# [20] = E. coli phenotype Cephalosporinase + R to fluoroquinolones + R to cotrimoxazole + partial R to aminosides, sixteen wafers
# [21] = E. coli phenotype Hl penicillinase + R to fluoroquinolones + R to cotrimoxazole + partial R to aminosides, sixteen wafers
# [22] = E. coli phenotype Wild, sixteen wafers in a rectangular grid
# [23] = K. pneumoniae phenotype Cephalosporinase + R to aminosides + R to cotrimoxazole
Compound,"resistance (I, R) or sensitivity (S) (Klebsiella oxytoca)","resistance (I, R) or sensitivity (S) (Escherichia coli; [1])","resistance (I, R) or sensitivity (S) (Escherichia coli; [2])","resistance (I, R) or sensitivity (S) (Escherichia coli; [3])","resistance (I, R) or sensitivity (S) (Enterobacter cloacea; E. cloacae phenotype BSBL)","resistance (I, R) or sensitivity (S) (Enterobacter cloacea; E. cloacae phenotype Wild)","resistance (I, R) or sensitivity (S) (Klebsiella pneumoniae; K. pneumoniae phenotype BSBL)","resistance (I, R) or sensitivity (S) (Klebsiella pneumoniae; [8])","resistance (I, R) or sensitivity (S) (Klebsiella pneumoniae; [9])","resistance (I, R) or sensitivity (S) (Klebsiella pneumoniae; [10])","resistance (I, R) or sensitivity (S) (Klebsiella pneumoniae; [11])","resistance (I, R) or sensitivity (S) (Klebsiella pneumoniae; K. pneumoniae phenotype Wild)","resistance (I, R) or sensitivity (S) (Pseudomonas aeruginosa; [16])","resistance (I, R) or sensitivity (S) (Pseudomonas aeruginosa; P. aeruginosa phenotype BSBL)","resistance (I, R) or sensitivity (S) (Pseudomonas aeruginosa; [17])","resistance (I, R) or sensitivity (S) (Pseudomonas aeruginosa; [18])","resistance (I, R) or sensitivity (S) (Pseudomonas aeruginosa; [19])","resistance (I, R) or sensitivity (S) (Pseudomonas aeruginosa; P. aeruginosa phenotype Wild)","resistance (I, R) or sensitivity (S) (Enterobacter aerogenes; E. aerogenes phenotype BSBL)","resistance (I, R) or sensitivity (S) (Enterobacter aerogenes; E. aerogenes phenotype Wild)",other results
"CO/N=C(\C(=O)N[C@@H]1C(=O)N2C(C(=O)[O-])=C(C[N+]3(C)CCCC3)CS[C@H]12)c1csc(N)n1 [FEP, cefepime]",S,R,R,R,R,S,R,R,S,S,S,S,R,I/R,R,S,S,S,R/I,S,"resistance (I, R) or sensitivity (S) (Escherichia coli; [4]): S; resistance (I, R) or sensitivity (S) (Escherichia coli; [5]): S; resistance (I, R) or sensitivity (S) (Escherichia coli; [6]): S; resistance (I, R) or sensitivity (S) (Escherichia coli; [7]): S; resistance (I, R) or sensitivity (S) (Proteus mirabilis; [12]): R; resistance (I, R) or sensitivity (S) (Proteus mirabilis; [13]): S; resistance (I, R) or sensitivity (S) (Proteus mirabilis; [14]): S; resistance (I, R) or sensitivity (S) (Proteus mirabilis; [15]): S; resistance (I, R) or sensitivity (S) (Proteus mirabilis; P. mirabilis phenotype Wild): S"
piperacillin-tazobactam [TZP],S,,,,R,S,R/I,R,I/R,S/I/R,R,S,R/S,I/R,R,I/S,S,S,R,S,
"C[C@@H](O)[C@H]1C(=O)N2C(C(=O)O)=C(SCCN=CN)C[C@H]12 [IMP, imipenem]",S,S,R,S,S,S,S,R,S,S,S,S,S,S,R,S,I,S,S,S,"resistance (I, R) or sensitivity (S) (Escherichia coli; [4]): S; resistance (I, R) or sensitivity (S) (Escherichia coli; [5]): S; resistance (I, R) or sensitivity (S) (Escherichia coli; [6]): S; resistance (I, R) or sensitivity (S) (Escherichia coli; [7]): S; resistant (I/R) or sensitive (S) (Escherichia coli; [20]): S; resistant (I/R) or sensitive (S) (Escherichia coli; [21]): S; resistant (I/R) or sensitive (S) (Escherichia coli; [22]): S; resistant (I/R) or sensitive (S) (Klebsiella pneumoniae; [23]): S; resistant (I/R) or sensitive (S) (Klebsiella pneumoniae; K. pneumoniae phenotype Wild): S; resistance (I, R) or sensitivity (S) (Proteus mirabilis; [12]): S; resistance (I, R) or sensitivity (S) (Proteus mirabilis; [13]): S; resistance (I, R) or sensitivity (S) (Proteus mirabilis; [14]): S; resistance (I, R) or sensitivity (S) (Proteus mirabilis; [15]): S; resistance (I, R) or sensitivity (S) (Proteus mirabilis; P. mirabilis phenotype Wild): S"
colistin,S,,,,S,S,S,S,S,S,S,S,,,,,,,S,S,resistant (I/R) or sensitive (S) (Escherichia coli; [20]): S; resistant (I/R) or sensitive (S) (Escherichia coli; [21]): S; resistant (I/R) or sensitive (S) (Escherichia coli; [22]): S; resistant (I/R) or sensitive (S) (Klebsiella pneumoniae; [23]): S; resistant (I/R) or sensitive (S) (Klebsiella pneumoniae; K. pneumoniae phenotype Wild): S
ticarcillin-clavulanic acid [TCC],,R,R,R,,,,,,,,,R,I/R,R,I/R,S,S,,,"synergy zone between two antibiotic wafers placed side by side (Escherichia coli; E. coli cephalosporinase phenotype (FIGS. 2D, 2E)): absence of a zone of synergy; synergy zone between two antibiotic wafers placed side by side (Escherichia coli; E. coli strain of BSBL phenotype, champagne-cork shaped inhibition zone): presence of a zone of synergy; resistance (I, R) or sensitivity (S) (Escherichia coli; [4]): I/R; resistance (I, R) or sensitivity (S) (Escherichia coli; [5]): R; resistance (I, R) or sensitivity (S) (Escherichia coli; [6]): S; resistance (I, R) or sensitivity (S) (Escherichia coli; [7]): S; resistant (I/R) or sensitive (S) (Escherichia coli; [20]): R; resistant (I/R) or sensitive (S) (Escherichia coli; [21]): I; resistant (I/R) or sensitive (S) (Escherichia coli; [22]): S; resistant (I/R) or sensitive (S) (Klebsiella pneumoniae; [23]): R; resistant (I/R) or sensitive (S) (Klebsiella pneumoniae; K. pneumoniae phenotype Wild): R; resistance (I, R) or sensitivity (S) (Proteus mirabilis; [12]): R; resistance (I, R) or sensitivity (S) (Proteus mirabilis; [13]): I; resistance (I, R) or sensitivity (S) (Proteus mirabilis; [14]): R; resistance (I, R) or sensitivity (S) (Proteus mirabilis; [15]): S; resistance (I, R) or sensitivity (S) (Proteus mirabilis; P. mirabilis phenotype Wild): S; synergy phenotype between antibiotics (BSBL bacteria): synergy"
